Consider 8 molecules from patent publication US20250170126A1 (MITSUBISHI TANABE PHARMA CORPORATION, priority 2022, published 2025).

Broadly, the IC50 is the concentration at which inhibition is half-maximal. A low value points to greater potency in that assay.

Sequence of Human B0AT1 (Q695T7 whole entry): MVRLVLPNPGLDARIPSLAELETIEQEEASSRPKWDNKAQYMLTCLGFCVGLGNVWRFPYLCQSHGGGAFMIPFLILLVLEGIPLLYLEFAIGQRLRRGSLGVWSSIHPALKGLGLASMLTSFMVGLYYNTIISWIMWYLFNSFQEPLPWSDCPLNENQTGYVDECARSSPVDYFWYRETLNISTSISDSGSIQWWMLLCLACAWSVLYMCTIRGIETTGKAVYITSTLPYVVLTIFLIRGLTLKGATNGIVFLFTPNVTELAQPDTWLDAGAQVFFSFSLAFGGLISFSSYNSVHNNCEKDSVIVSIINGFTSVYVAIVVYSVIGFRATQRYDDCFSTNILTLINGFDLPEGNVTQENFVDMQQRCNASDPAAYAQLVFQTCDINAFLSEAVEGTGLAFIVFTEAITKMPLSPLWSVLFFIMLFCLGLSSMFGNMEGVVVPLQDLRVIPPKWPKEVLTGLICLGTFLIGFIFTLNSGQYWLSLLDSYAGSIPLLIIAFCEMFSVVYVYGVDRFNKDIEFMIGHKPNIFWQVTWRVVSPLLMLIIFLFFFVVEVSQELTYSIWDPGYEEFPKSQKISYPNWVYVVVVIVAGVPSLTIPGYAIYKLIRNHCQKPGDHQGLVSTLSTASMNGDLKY

This experiment addresses Human B0AT1 (Homo sapiens (Human), UniProt Q695T7). Put plainly: hB0AT1 inhibitory test (phenylalanine uptake). It counts as cell-based. As to conditions: Human B0AT1 stable expression CHO cells; [3H]-L-phenylalanine uptake, phenylalanine 0.25 mM. In short, it runs like this:
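CHO cells stably expressing human B0AT1, in sodium-containing HEPES buffer with 0.01% BSA, preincubated with compound (0.5% DMSO) 30 min or longer at ambient temperature. Uptake of [3H]-L-phenylalanine (0.25 mM final) read by scintillation, analysed at 100-200 min; non-specific uptake from […] N-(4-bromophenyl)-3,5-dichloro-2-hydroxybenzamide, IC50 by logistic nonlinear regression.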
As to `O=C(/C=C/c1ccc(S(F)(F)(F)(F)F)cc1)NCC(=O)N1CCc2cc(C(=O)O)ccc2C1` [I-276, 2-[2-[[(E)-3-[4-(pentafluoro-A6-sulfanyl)phenyl]prop-2-enoyl]amino]acetyl]-3,4-dihydro-1H-isoquinoline-6-carboxylic acid], the IC50 came out at 87 nM.

Turning to `O=C(/C=C/c1ccc(C(F)(F)F)cc1)NCC(=O)N1CCc2cc(C(=O)O)ccc2C1` [I-277], 143 nM corresponded to half-maximal inhibition (IC50).

Molecule `CC(C)CNC(=O)C1CN(C(=O)CNC(=O)/C=C/c2ccc(C(F)(F)F)cc2)Cc2ccccc21` (centres unmarked) [I-278, N-(2-methylpropyl)-2-[2-[[(E)-3-[4-(trifluoromethyl)phenyl]prop-2-enoyl]amino]acetyl]-3,4-dihydro-1H-isoquinoline-4-carboxamide] registered a half-maximal inhibitory concentration (IC50) of 87 nM.

On to `CNC(=O)c1nn2c(c1Br)CN(C(=O)CNC(=O)/C=C/c1ccc(C(F)(F)F)cc1)CC2` [I-279], for which half-maximal inhibition (IC50) required 71 nM.

`O=C(/C=C/c1ccc(C(F)(F)F)cc1)NCC(=O)N1CCn2ncc(C(=O)N3CCC(F)(F)C3)c2C1` [I-280]: it took 49 nM to reach half-maximal inhibition (IC50).

In turn, `NC(=O)c1ccc2c(c1)CCN(C(=O)CNC(=O)/C=C/c1ccc(C(F)(F)F)cc1)C2` [I-281] came in with an IC50 of 21 nM.

For the molecule `O=C(/C=C/c1ccc(C(F)(F)F)cc1)NCC(=O)N1CCn2nc(C(F)F)cc2C1` [I-282, (E)-N-[2-[2-(difluoromethyl)-6,7-dihydro-4H-pyrazolo [1,5-a]pyrazin-5-yl]-2-oxoethyl]-3-[4-(trifluoromethyl)phenyl]prop-2-enamide], the IC50 was 26 nM.

With `O=C(/C=C/c1ccc(C(F)(F)F)cc1)NCC(=O)N1Cc2ccnn2C[C@@H]1C(=O)O` [I-283, (6R)-5-[2-[[(E)-3-[4-(trifluoromethyl)phenyl]prop-2-enoyl]amino]acetyl]-6,7-dihydro-4H-pyrazolo[1,5-a]pyrazine-6-carboxylic acid], the 50% inhibitory concentration (IC50) came out at 361 nM.
